The values below come from ChEMBL document CHEMBL1126257, “Fluoronaphthyridines and -quinolones as antibacterial agents. 5. Synthesis and antimicrobial activity of chiral 1-tert-butyl-6-fluoro-7-substituted-naphthyridones” (J Med Chem, 1992).

In brackets after ≈: the same amount, converted by molar mass.

One experiment has as its system Serratia marcescens. The experiment can be described thus: In vitro antibacterial activity against Serratia marcescens A 20019. It counts as functional.
For experiment [1], the system named is Klebsiella pneumoniae. In words: In vitro antibacterial activity against Klebsiella pneumoniae A 9664. It counts as functional.
In experiment [2] the test system is Klebsiella pneumoniae. The experiment can be described thus: In vivo potency on systemic infection caused by after oral administration to mice expressed as median protective dose perorally. It counts as functional. The conditions noted are these: read-out: PD50.
For experiment [3], the system named is Escherichia coli. In words: In vitro antibacterial activity against Escherichia coli A 15119. In kind it is functional.
The next experiment deals with Enterobacter cloacae. In words: In vitro antibacterial activity against Enterobacter cloacae A 9656. In kind it is functional.
For experiment [4], the system named is Staphylococcus aureus. The experiment can be described thus: In vitro antibacterial activity against Staphylococcus aureus A9537. It counts as functional.
In another experiment the test system is Morganella morganii. In words: In vitro antibacterial activity against Morganella morganii A 15153. In kind it is functional.
The next experiment deals with Enterococcus faecalis. The experiment can be described thus: In vitro antibacterial activity against Enterococcus faecalis A9809. In kind it is functional.
The subject of a further experiment is Enterococcus faecium. In words: In vitro antibacterial activity against Enterococcus faecium A 24885. It counts as functional.
The subject of experiment [5] is Pseudomonas aeruginosa. In words: In vitro antibacterial activity against Pseudomonas aeruginosa A 9243. In kind it is functional.
Experiment [6] concerns Escherichia coli. The experiment can be described thus: (§1) In vivo potency on systemic infection caused by after oral administration to mice expressed as median protective dose. It counts as functional. The conditions noted are these: read-out: PD50.
In experiment [7] the test system is Pseudomonas aeruginosa. The experiment is described as §1. It counts as functional. The following applies: read-out: PD50.
Experiment [8] deals with Staphylococcus aureus. The experiment can be described thus: animal or person. The following applies: in Mus musculus, po, read-out: PD50.
Description: In vivo potency on systemic infection caused by Staphylococcus aureus A9537 after oral administration to mice expressed as median protective dose.
Experiment [9] concerns Klebsiella pneumoniae. The experiment is described as §1. The conditions noted are these: read-out: PD50. It counts as functional.
Experiment [10] has as its system Klebsiella pneumoniae. In words: In vivo potency on systemic infection caused by Klebsiella pneumoniae A 9664 after oral administration to mice expressed as median protective dose. The conditions noted are these: read-out: PD50. It counts as functional.
Experiment [11] relates to Escherichia coli. In words: In vivo potency on systemic infection caused by Escherichia coli A 15119 after oral administration to mice expressed as median protective dose. It counts as functional. The following applies: read-out: PD50.
[12] abbreviates: Serratia marcescens, read-out: MIC.
[13] abbreviates: Klebsiella pneumoniae, read-out: MIC.
Setting [14] is: Escherichia coli, read-out: MIC.
[15] abbreviates: Enterobacter cloacae, read-out: MIC.
Setting [16] is: Staphylococcus aureus, read-out: MIC.
Setting [17] is: Morganella morganii, read-out: MIC.
The mark [18] stands for this setting: Enterococcus faecalis, read-out: MIC.
Where [19] appears, read: Enterococcus faecium, read-out: MIC.
Where [20] appears, read: Pseudomonas aeruginosa, read-out: MIC.

Take `C[C@@H]1CN(c2nc3c(cc2F)c(=O)c(C(=O)O)cn3C(C)(C)C)C[C@H]1N`: the MIC (as a rule, the smallest concentration in the dilution series that meets the test's criterion for growth inhibition) worked out at 0.25 µg/mL (≈ 0.69 µM) in the experiment on Serratia marcescens (setting [12]); 0.03 µg/mL (≈ 0.0828 µM) with Klebsiella pneumoniae [1] (setting [13]); 0.016 µg/mL (≈ 0.0441 µM) in the experiment on Escherichia coli [3] (setting [14]); 0.016 µg/mL (≈ 0.0441 µM) in the experiment on Enterobacter cloacae (setting [15]); 0.002 µg/mL (≈ 0.00552 µM) with Staphylococcus aureus [4] (setting [16]); 0.25 µg/mL (≈ 0.69 µM) in the experiment on Morganella morganii (setting [17]). Moreover, the MIC in the experiment with Enterococcus faecalis (setting [18]) came to 0.06 µg/mL (≈ 0.166 µM); in the experiment with Enterococcus faecium (setting [19]), 0.5 µg/mL (≈ 1.38 µM); with Pseudomonas aeruginosa [5] (setting [20]), 0.5 µg/mL (≈ 1.38 µM). Moreover, the ED50 with Klebsiella pneumoniae [2] is 0.81 mg/kg; with Escherichia coli [6] it was 2.1 mg/kg; in the experiment on Pseudomonas aeruginosa [7], 5.5 mg/kg; in the experiment with Staphylococcus aureus [8] it was 1.2 mg/kg.

As for `C[C@H]1CN(c2nc3c(cc2F)c(=O)c(C(=O)O)cn3C(C)(C)C)C[C@H]1N`, the MIC in the experiment on Serratia marcescens (setting [12]) is 0.13 µg/mL (≈ 0.359 µM); with Klebsiella pneumoniae [1] (setting [13]), 0.5 µg/mL (≈ 1.38 µM); with Escherichia coli [3] (setting [14]) it was 0.016 µg/mL (≈ 0.0441 µM); in the experiment with Enterobacter cloacae (setting [15]) it was 0.13 µg/mL (≈ 0.359 µM); with Staphylococcus aureus [4] (setting [16]) it was 0.008 µg/mL (≈ 0.0221 µM); in the experiment with Morganella morganii (setting [17]), 0.13 µg/mL (≈ 0.359 µM). Moreover, the MIC was found to be 0.25 µg/mL (≈ 0.69 µM) with Enterococcus faecalis (setting [18]), 1 µg/mL (≈ 2.76 µM) in the experiment on Enterococcus faecium (setting [19]) and 1 µg/mL (≈ 2.76 µM) in the experiment on Pseudomonas aeruginosa [5] (setting [20]). Moreover, the ED50 amounted to 1.4 mg/kg in the experiment with Escherichia coli [6], 3.9 mg/kg in the experiment on Klebsiella pneumoniae [9], 4.7 mg/kg with Pseudomonas aeruginosa [7] and 1 mg/kg in the experiment with Staphylococcus aureus [8].

With `C[C@@H]1C[C@@H](N)CN1c1nc2c(cc1F)c(=O)c(C(=O)O)cn2C(C)(C)C` (stereo in doubt; 67), the MIC in the experiment with Serratia marcescens was 2 µg/mL (≈ 5.52 µM); against Klebsiella pneumoniae [1], 0.5 µg/mL (≈ 1.38 µM); against Escherichia coli [3], 0.25 µg/mL (≈ 0.69 µM); against Enterobacter cloacae it was 0.5 µg/mL (≈ 1.38 µM); in the experiment with Staphylococcus aureus [4], 0.13 µg/mL (≈ 0.359 µM); in the experiment on Morganella morganii, 4 µg/mL (≈ 11 µM). The MIC in the experiment on Enterococcus faecalis worked out at 1 µg/mL (≈ 2.76 µM); in the experiment on Enterococcus faecium, 8 µg/mL (≈ 22.1 µM); against Pseudomonas aeruginosa [5], 16 µg/mL (≈ 44.1 µM).

On to `CC(C)(C)n1cc(C(=O)O)c(=O)c2cc(F)c(N3CC[C@H](N)C3)nc21`, for which the MIC with Serratia marcescens (setting [12]) came out at 0.13 µg/mL (≈ 0.373 µM); in the experiment on Klebsiella pneumoniae [1] (setting [13]) it was 0.03 µg/mL (≈ 0.0861 µM); in the experiment on Escherichia coli [3] (setting [14]) it was 0.015 µg/mL (≈ 0.0431 µM); in the experiment on Enterobacter cloacae (setting [15]) it was 0.13 µg/mL (≈ 0.373 µM); in the experiment on Staphylococcus aureus [4] (setting [16]), 0.0005 µg/mL (≈ 0.00144 µM); with Morganella morganii (setting [17]), 0.13 µg/mL (≈ 0.373 µM). Besides, the MIC in the experiment on Enterococcus faecalis (setting [18]) turned out to be 0.03 µg/mL (≈ 0.0861 µM); in the experiment with Enterococcus faecium (setting [19]) it was 0.5 µg/mL (≈ 1.44 µM); in the experiment with Pseudomonas aeruginosa [5] (setting [20]), 0.13 µg/mL (≈ 0.373 µM). The ED50 amounted to 3.5 mg/kg with Klebsiella pneumoniae [10] and 1.2 mg/kg in the experiment on Escherichia coli [11].

Take `C[C@@H]1C[C@@H](N)CN1c1nc2c(cc1F)c(=O)c(C(=O)O)cn2C(C)(C)C` (stereo in doubt; 68): the MIC against Serratia marcescens turned out to be 0.5 µg/mL (≈ 1.38 µM); in the experiment with Klebsiella pneumoniae [1] (setting [13]), 0.5 µg/mL (≈ 1.38 µM); in the experiment with Escherichia coli [3], 0.016 µg/mL (≈ 0.0441 µM); with Enterobacter cloacae, 0.13 µg/mL (≈ 0.359 µM); against Staphylococcus aureus [4], 0.002 µg/mL (≈ 0.00552 µM); against Morganella morganii it was 0.25 µg/mL (≈ 0.69 µM). The MIC in the experiment with Enterococcus faecalis is 0.03 µg/mL (≈ 0.0828 µM); against Enterococcus faecium, 0.5 µg/mL (≈ 1.38 µM); against Pseudomonas aeruginosa [5], 0.5 µg/mL (≈ 1.38 µM). The ED50 in the experiment on Escherichia coli [6] stood at 2.6 mg/kg; in the experiment on Klebsiella pneumoniae [9], 8.2 mg/kg; in the experiment on Pseudomonas aeruginosa [7], 14.4 mg/kg; in the experiment with Staphylococcus aureus [8] it was 0.9 mg/kg.

Turning to `C[C@H]1C[C@@H](N)CN1c1nc2c(cc1F)c(=O)c(C(=O)O)cn2C(C)(C)C`, the MIC came to 0.5 µg/mL (≈ 1.38 µM) in the experiment on Serratia marcescens (setting [12]); 0.06 µg/mL (≈ 0.166 µM) in the experiment on Klebsiella pneumoniae [1] (setting [13]); 0.03 µg/mL (≈ 0.0828 µM) in the experiment with Escherichia coli [3] (setting [14]); 0.03 µg/mL (≈ 0.0828 µM) in the experiment with Enterobacter cloacae (setting [15]); 0.015 µg/mL (≈ 0.0414 µM) in the experiment with Staphylococcus aureus [4] (setting [16]); 0.5 µg/mL (≈ 1.38 µM) in the experiment on Morganella morganii (setting [17]). For the same compound, the MIC was found to be 0.25 µg/mL (≈ 0.69 µM) in the experiment on Enterococcus faecalis (setting [18]), 2 µg/mL (≈ 5.52 µM) in the experiment on Enterococcus faecium (setting [19]) and 2 µg/mL (≈ 5.52 µM) with Pseudomonas aeruginosa [5] (setting [20]).

Turning to `CN(C)C1CCN(c2nc3c(cc2F)c(=O)c(C(=O)O)cn3C(C)(C)C)C1` (centres undefined), the MIC with Serratia marcescens (setting [12]) came out at 1 µg/mL (≈ 2.66 µM); in the experiment with Klebsiella pneumoniae [1] (setting [13]), 0.13 µg/mL (≈ 0.345 µM); in the experiment with Escherichia coli [3] (setting [14]) it was 0.25 µg/mL (≈ 0.664 µM); in the experiment with Enterobacter cloacae (setting [15]), 1 µg/mL (≈ 2.66 µM); with Staphylococcus aureus [4] (setting [16]), 0.03 µg/mL (≈ 0.0797 µM); in the experiment with Morganella morganii (setting [17]), 0.5 µg/mL (≈ 1.33 µM). In addition, the MIC in the experiment with Enterococcus faecalis (setting [18]) is 1 µg/mL (≈ 2.66 µM); in the experiment on Enterococcus faecium (setting [19]), 8 µg/mL (≈ 21.3 µM); with Pseudomonas aeruginosa [5] (setting [20]) it was 1 µg/mL (≈ 2.66 µM).

On to `C[C@@H]1C[C@H](N)CN1c1nc2c(cc1F)c(=O)c(C(=O)O)cn2C(C)(C)C`, for which the MIC was found to be 2 µg/mL (≈ 5.52 µM) in the experiment on Serratia marcescens (setting [12]); 0.25 µg/mL (≈ 0.69 µM) with Klebsiella pneumoniae [1] (setting [13]); 0.25 µg/mL (≈ 0.69 µM) with Escherichia coli [3] (setting [14]); 0.25 µg/mL (≈ 0.69 µM) with Enterobacter cloacae (setting [15]); 0.13 µg/mL (≈ 0.359 µM) in the experiment with Staphylococcus aureus [4] (setting [16]); 2 µg/mL (≈ 5.52 µM) with Morganella morganii (setting [17]). The minimal inhibitory concentration (MIC) in the experiment on Enterococcus faecalis (setting [18]) was 0.5 µg/mL (≈ 1.38 µM); with Enterococcus faecium (setting [19]) it was 2 µg/mL (≈ 5.52 µM); in the experiment with Pseudomonas aeruginosa [5] (setting [20]), 8 µg/mL (≈ 22.1 µM).

Regarding `CN(C)[C@H]1CCN(c2nc3c(cc2F)c(=O)c(C(=O)O)cn3C(C)(C)C)C1`, the minimum inhibitory concentration (MIC) with Serratia marcescens (setting [12]) was 1 µg/mL (≈ 2.66 µM); with Klebsiella pneumoniae [1] (setting [13]), 0.06 µg/mL (≈ 0.159 µM); in the experiment on Escherichia coli [3] (setting [14]), 0.015 µg/mL (≈ 0.0398 µM); in the experiment with Enterobacter cloacae (setting [15]) it was 0.03 µg/mL (≈ 0.0797 µM); in the experiment with Staphylococcus aureus [4] (setting [16]), 0.03 µg/mL (≈ 0.0797 µM); in the experiment with Enterococcus faecalis (setting [18]) it was 0.5 µg/mL (≈ 1.33 µM). Further, the MIC in the experiment on Enterococcus faecium (setting [19]) stood at 4 µg/mL (≈ 10.6 µM); in the experiment on Pseudomonas aeruginosa [5] (setting [20]), 2 µg/mL (≈ 5.31 µM).
